According to patent US7208495B2, “Benzo-fused 5-membered hetrocycle compounds, process for preparation of the same, and use thereof” (Takeda Pharmaceutical Company Limited, priority 2001, dated 2007):

What was measured:
[1] = system: human neuroblastoma SK-N-SH cells; assay: Cytoprotection activity against PI-3 kinase inhibitor LY-294002 in human neuroblastoma SK-N-SH cells; format: cell-based; settings: test compound 1.0 μM with LY-294002 30 μM, Alamarblue reduction one day after start, (A−B)/(C−B)×100
Experimental: Cytoprotection activity against a PI-3 kinase inhibitor LY-294002 in human neuroblastoma SK-N-SH cells.
Human neuroblastoma SK-N-SH cells were purchased from American Type Cell Culture (ATCC). DMEM/F-12 culture medium and potassium/magnesium-free phosphate buffer saline (PBS(−)) were purchased from Nikken Biomedical Co., Ltd., N2 additives and EDTA solution were purchased from GIBCO BRL Company, fetal bovine serum (FCS) and a mixed solution of penicillin (5000 U/ml) and streptomycin (5 mg/ml) were purchased from BioWhittaker Inc., Alamarblue™ reagent was purchased from Wako Pure Chemical Industries Ltd., culture flasks were purchased from Falcon Company, collagen-coated 96-well multi-plates were purchased from Iwaki Glass Co., Ltd., and LY-294002 was purchased from Alexis Biochemicals, respectively. As for other reagents, commercially available guaranteed reagents were used.
A DMEM/F-12 culture medium which contains 5% FCS, 0.5% N2, 10 mM HEPES, and a 1% mixed solution of penicillin (5000 U/ml) and streptomycin (5 mg/ml) was used to subculture SK-N-SH cells in a carbon dioxide incubator under a mixed gas atmosphere consisting of 10% carbon dioxide/90% air. After being cultivated to a sub-confluent stage, the cells were detached with a PBS(−) solution containing 2.5 mM EDTA and seeded onto collagen-coated 96-well multi-plates in the proportion of 10^4/100 μL well. After cultivation for 24 hours, the cultured cells were used in a cytotoxic test.
[…] of the culture medium of the SK-N-SH cells that were cultured as described above on the collagen-coated 96-well multi-plates was removed, and 40 μL each of LY-294002 having a final concentration of 30 μM and a test compound having a final concentration that was adjusted to be 1.0 μM were simultaneously added to initiate the cytotoxicity test. Note that each test compound used was diluted to a concentration of 10 mM with dimethyl sulfoxide, and the LY-294002 used was diluted to a concentration of 100 mM with dimethyl sulfoxide.
The survival activity of neural cells that were still living one day after the initiation of the cytotoxicity test was estimated by the reductive activity of Alamarblue™ reagent as an index. 20 μL of the culture medium was removed, 20 μL of Alamarblue™ reagent was added, and the amount of Alamarblue™ reagent reduced for 4 hours incubation was calorimetrically measured with a plate reader (WAKO SPECTRAMAX 250 Microplate Reader) (measurement wave length 570 nm, reference wave length 600 nm).
Cytoprotection activity was calculated by means of the following equation. Cytoprotection activity a test compound=(A−B)/(C−B)×100 (%) • A: The survival activity of a group consisting of a test compound and LY-294002 • B: The survival activity of a group consisting of LY-294002 • C: The survival activity of a control group (Results)
At least 4 wells for every 1 dose of a test compound was used to determine the cytoprotection activity of a test compound.

mixed rat glia culture = assay: Neurogenesis enhancing activity in mixed rat glia culture (β III-tubulin positive cell area); format: cell-based; settings: compound 1 μM; serum-free medium, five days differentiation; β III-tubulin positive cell area by image analysis versus control without compound
Excerpt: Neurogenesis Enhancing Activity in Mixed Rat Glia Culture
Neonatal of SD rats were purchased from Japan Charles River Co, Ltd. A […] nylon cell strainer was purchased from Beckton-Dickinson. DMEM/F12 culture medium, antibiotic, and N2 additive were purchased from Life Technology Corp. Anti β III-tubulin antibody was purchased from Sigma Corp. DAKO EnVision+/HRP kit was purchased from Dako Japan Corp. As for other reagents, commercially available guaranteed reagents were used.
Rat mixed glia culture was prepared from the cerebrums of 2 day old neonatal SD rat. The neonates were anaesthetised with ice cooling, were decapitated, and their brains were quickly removed. The meninges were carefully removed, and the cerebral cortex was separated therefrom. The cerebral cortex was passed through 40 micron nylon mesh, and it was physically dissociated. Cell suspension was then layered in a cell dispersion liquid on serum, and the cells were fractionated by non-continuous density gradient centrifugation. The precipitate was washed twice with growth culture medium (10% FBS and antibiotic. added to DMEM/F12), and it was dispersed. Mixed glia culture was seeded and inoculated onto a collagen coated 96 well multiplate with 1×10^5 cells per well, and was cultured for five days.
After culturing for five days, mixed glia culture was used in a differentiation assay. Growth culture medium was substituted with a serum-free medium (N2 supplememt and antibiotic added to DMEM/F12), and test compound was added simultaneously. After differentiation for five days, culture was fixed with 4% paraformaldehyde, and was immunostained with the mouse anti β III-tubulin monoclonal antibody and the DAKO EnVison+/HRP kit.
β III-tubulin positive cell area were quantified by image analysis, and was compared to when compound (I) was added (1 μM) and when it was not added (control).

Row | Compound | Cell protection activity (%) [1] | Differentiation/nacent promotion activity (%/control) (mixed rat glia culture)
1 | COc1ccc(N2CCN(c3c(C)c(C)c4c(c3C)C(O)(c3ccc(C)cc3)C(C)(C)O4)CC2)cc1 (stereo not shown) [Example 33, 1-(3-hydroxy-2,2,4,6,7-pentamethyl-3-(4-methylphenyl)-2,3-dihydro-1-benzofuran-5-yl)-4-(4-methoxyphenyl)piperazine] | 24.9% | 448 %/control
2 | COc1ccc(C2CCN(c3c(C)c(C)c4c(c3C)C(c3ccc(C)cc3)C(C)(C)O4)CC2)cc1OC (stereo not shown) [Example 79, 4-(3,4-dimethoxyphenyl)-1-(3-(4-methylphenyl)-2,2,4,6,7-pentamethyl-2,3-dihydro-1-benzofuran-5-yl)piperidine] | 31.3% | –
3 | COc1ccc(C2CCN(c3c(C)c(C)c4c(c3C)C(N3CCc5ccccc5CC3)C(C)(C)O4)CC2)cc1OC (stereo not shown) [Example 92, 3-(5-(4-[3,4-dimethoxyphenyl]piperidino)-2,2,4,6,7-pentamethyl-2,3-dihydro-1-benzofuran-3-yl)-2,3,4,5-tetrahydro-1H-3-benzoazepin] | 29.6% | –
4 | COc1ccc(N2CCN(c3c(C)c(C)c4c(c3C)C(Nc3ccccc3)C(C)(C)O4)CC2)cc1 (stereo not shown) [Example 58, N-phenyl-5-(4-(4-methoxyphenyl)piperazin-1-yl)-2,2,4,6,7-pentamethyl-2,3-dihydro-1-benzofuran-3-amine] | 39.2% | –
5 | COc1ccc(N2CCN(c3c(C)c(C)c4c(c3C)C(c3ccc(C)cc3)C(C)(C)O4)CC2)cc1 (stereo not shown) [Example 46, 1-(2,2,4,6,7-pentamethyl-3-(4-methylphenyl)-2,3-dihydro-1-benzofuran-5-yl)-4-(4-methoxyphenyl)piperazine] | 39.5% | 842 %/control
6 | COc1ccc(N2CCN(c3c(C)c(C)c4c(c3C)C(N3CCCCC3)C(C)(C)O4)CC2)cc1 (stereo not shown) [Example 59, 4-(4-methoxyphenyl)-1-(2,2,4,6,7-pentamethyl-3-piperidino-2,3-dihydro-1-benzofuran-5-yl)piperazine] | 23.9% | –
7 | COc1ccc(C2CCN(c3c(C)c(C)c4c(c3C)[C@@H](c3ccc(C)cc3)C(C)(C)O4)CC2)cc1OC [Example 32, (3R)-4-(3,4-dimethoxyphenyl)-1-(2,2,4,6,7-pentamethyl-3-(4-methylphenyl)-2,3-dihydro-1-benzofuran-5-yl)piperidine] | 35.6% | 371 %/control
